Source: patent US20030130123A1, “2-Phenyl-2h-pyridazine-3-ones” (priority 2000, published 2003)

Legend:
IPOSS (morning glory) = experiment: Greenhouse herbicidal action, postemergence treatment; type: in vivo; details: 100 = complete destruction, 0 = no damage
Description: (§1) The herbicidal action of the 2-phenylpyridazin-3-one compounds of the formula I could be shown by means of greenhouse experiments: […]
(§2) The cultivation containers used were plastic pots containing loamy sand with approximately 3.0% of humus as a substrate. The seeds of the test plants were sown separately according to species.
(§3) For the purpose of postemergence treatment, the test plants were first raised up to a growth height of 3 to 15 cm, depending on growth form, and then treated with the active compounds suspended or emulsified in water. For this, the test plants were either sown directly and raised in the same containers or they were first raised separately as seedlings and transplanted into the experimental containers a few days before the treatment. The application rate for the postemergence treatment was 15.6 or 7.8 g of a.s./ha.
(§4) The plants were kept species-specifically at temperature from 10-25° C. or 20-35° C. The experimental period extended over 2 to 4 weeks. During this time, the plants were tended, and their reaction to the individual treatments was assessed.
(§5) Assessment was carried out on a scale from 0 to 100. 100 here means no emergence of the plants or complete destruction of at least the above-ground parts and 0 means no damage or normal course of growth.
(§6) The plants used in the greenhouse experiments were made up of the following species:
(§7) The compound Ia.4 from Example 1 and the compound of Example 1-637 (X=H), disclosed in WO 97/07104, were tested in the postemergence process in the manner described.

COMBE (dayflower) = experiment: as above; type: in vivo; details: 100 = complete destruction, 0 = no damage
Description: as §1, §2, §3, §4, §5, §6, §7

ABUTH (velvetleaf) = experiment: as above; type: in vivo; details: 100 = complete destruction, 0 = no damage
Description: as §1, §2, §3, §4, §5, §6, §7

GALAP (catchweed) = experiment: as above; type: in vivo; details: 100 = complete destruction, 0 = no damage
Description: as §1, §2, §3, §4, §5, §6, §7

[1] = tested on: BIDPI (hairy beggarticks); experiment: as above; type: in vivo; details: 100 = complete destruction, 0 = no damage
Description: as §1, §2, §3, §4, §5, §6, §7

[2] = application rate 7.8 g/ha (a.s.)
[3] = application rate 15.6 g/ha (a.s.)

In the case of `CCOC(=O)C(Cl)=Cc1cc(-n2ncc(C(F)(F)F)c(C)c2=O)ccc1Cl` [Ia.4, 2-[4-Chloro-3-(2-ethoxycarbonyl-2-chloroethen-1-yl)phenyl]-4-methyl-5-trifluoromethyl-2H-pyridazin-3-one], the “Herbicidal action, assessment on a scale from 0 to 100” value (shortened to “Herbicidal action, assessment”) (IPOSS (morning glory); [2]) is reported as 100, the “Herbicidal action, assessment” value (IPOSS (morning glory); [3]) is reported as 100 and the “Herbicidal action, assessment” value (COMBE (dayflower); [2]) is reported as 100. The “Herbicidal action, assessment” value (COMBE (dayflower); [3]) was 100, the “Herbicidal action, assessment” value (ABUTH (velvetleaf); [2]) was 100 and the “Herbicidal action, assessment” value (ABUTH (velvetleaf); [3]) was 100. For the same compound, the “Herbicidal action, assessment” value (GALAP (catchweed); [2]) was 100, the “Herbicidal action, assessment” value (GALAP (catchweed); [3]) was 100 and the “Herbicidal action, assessment” value [1, 2] was 80. The “Herbicidal action, assessment” value [1, 3] was 98.
Work on `COCCOC(=O)C(Cl)=Cc1cc(-n2ncc(C(F)(F)F)c(C)c2=O)ccc1Cl` [Ia.12, 2-{4-Chloro-3-[2-(2-methoxyethoxy)carbonyl-2-chloroethen-1-yl]phenyl}-4-methyl-5-trifluoromethyl-2H-pyridazin-3-one] yielded a melting point of 60 to 62 °C.
For `Cc1c(C(F)(F)F)cnn(-c2ccc(Cl)c(C=C(Cl)C(=O)OCCC#N)c2)c1=O` [Ia.16, 2-{4-Chloro-3-[2-(2-cyanoethoxy)carbonyl-2-chloroethen-1-yl]phenyl}-4-methyl-5-trifluoromethyl-2H-pyridazin-3-one], the melting point was 78 to 79 °C.
Compound `C=CCOC(=O)C(Cl)=Cc1cc(-n2ncc(C(F)(F)F)c(C)c2=O)ccc1Cl` [Ia.41, 2-[4-Chloro-3-(2-allyloxycarbonyl-2-chloroethen-1-yl)phenyl]-4-methyl-5-trifluoromethyl-2H-pyridazin-3-one] has a melting point of 62 to 63 °C.
`C#CCOC(=O)C(Cl)=Cc1cc(-n2ncc(C(F)(F)F)c(C)c2=O)ccc1Cl` [Ia.42, 2-[4-Chloro-3-(2-propargyloxycarbonyl-2-chloroethen-1-yl)phenyl]-4-methyl-5-trifluoromethyl-2H-pyridazin-3-one] showed a melting point of 81 to 82 °C.
